Experimental data taken from ChEMBL document CHEMBL4311972, “Discovery of a benzothiophene-flavonol halting miltefosine and antimonial drug resistance in Leishmania parasites through the application of medicinal chemistry, screening and genomics” (Eur J Med Chem, 2019).
pEC50: −log10 of the molar value. Activity calls are given as the source filed them. The calls are words filed in the database; no cut-off is given here.

How the values were obtained:
[1] = Chemical stability of compound in PBS assessed as decrease in absorbance at 20 uM at pH 8 measured after air bubbling by UV-vis spectrophotometry analysis; format: physicochemical; settings: buffer, pH 8, 20 µM
[2] = system: Leishmania donovani; experiment: Antileishmanial activity against promastigote form of Leishmania donovani assessed as parasite growth inhibition; format: functional, organism-based
[3] = system: 786-0; experiment: Mitochondrial toxicity in human 786-0 cells at 10 uM incubated with compound for 6 hrs followed by incubation with MitoTracker Red chloromethyl-X-rosamine dye for 45 mins by imaging analysis; format: cell-based; settings: 786-0, 6 h
[4] = system: Trypanosoma cruzi; experiment: Antitrypanosomal activity against intracellular amastigote stage of Trypanosoma cruzi ARMA 13 cl1 infected in human U2OS cells measured after 96 hrs by DRAQ5 dye based microscopic analysis; format: functional, organism-based
[5] = system: Trypanosoma cruzi; experiment: Antitrypanosomal activity against intracellular amastigote stage of Trypanosoma cruzi Y infected in human U2OS cells measured after 96 hrs by DRAQ5 dye based microscopic analysis; format: functional, organism-based
[6] = system: Trypanosoma cruzi; experiment: Antitrypanosomal activity against intracellular amastigote stage of Trypanosoma cruzi CL Brener infected in human U2OS cells measured after 96 hrs by DRAQ5 dye based microscopic analysis; format: functional, organism-based
[7] = system: Leishmania infantum; experiment: Antileishmanial activity against Leishmania infantum amastigotes infected in Syrian hamster assessed as parasite load within spleen at 40 mg/kg/day, po for 10 days formulated with 50% v/v cyclodextrin (reference value: 8508698.676 +/- 2835609.487/g); format: functional
[8] = Thermodynamic solubility of the compound in water at >50 uM; format: physicochemical; settings: buffer
[9] = biological target: hERG (KCNH2) (Homo sapiens, UniProt Q12809); experiment: Inhibition of human ERG at 10 uM incubated for 2 hrs by fluorescence polarization assay relative to control
Sequence of hERG (KCNH2) (Q12809 whole entry): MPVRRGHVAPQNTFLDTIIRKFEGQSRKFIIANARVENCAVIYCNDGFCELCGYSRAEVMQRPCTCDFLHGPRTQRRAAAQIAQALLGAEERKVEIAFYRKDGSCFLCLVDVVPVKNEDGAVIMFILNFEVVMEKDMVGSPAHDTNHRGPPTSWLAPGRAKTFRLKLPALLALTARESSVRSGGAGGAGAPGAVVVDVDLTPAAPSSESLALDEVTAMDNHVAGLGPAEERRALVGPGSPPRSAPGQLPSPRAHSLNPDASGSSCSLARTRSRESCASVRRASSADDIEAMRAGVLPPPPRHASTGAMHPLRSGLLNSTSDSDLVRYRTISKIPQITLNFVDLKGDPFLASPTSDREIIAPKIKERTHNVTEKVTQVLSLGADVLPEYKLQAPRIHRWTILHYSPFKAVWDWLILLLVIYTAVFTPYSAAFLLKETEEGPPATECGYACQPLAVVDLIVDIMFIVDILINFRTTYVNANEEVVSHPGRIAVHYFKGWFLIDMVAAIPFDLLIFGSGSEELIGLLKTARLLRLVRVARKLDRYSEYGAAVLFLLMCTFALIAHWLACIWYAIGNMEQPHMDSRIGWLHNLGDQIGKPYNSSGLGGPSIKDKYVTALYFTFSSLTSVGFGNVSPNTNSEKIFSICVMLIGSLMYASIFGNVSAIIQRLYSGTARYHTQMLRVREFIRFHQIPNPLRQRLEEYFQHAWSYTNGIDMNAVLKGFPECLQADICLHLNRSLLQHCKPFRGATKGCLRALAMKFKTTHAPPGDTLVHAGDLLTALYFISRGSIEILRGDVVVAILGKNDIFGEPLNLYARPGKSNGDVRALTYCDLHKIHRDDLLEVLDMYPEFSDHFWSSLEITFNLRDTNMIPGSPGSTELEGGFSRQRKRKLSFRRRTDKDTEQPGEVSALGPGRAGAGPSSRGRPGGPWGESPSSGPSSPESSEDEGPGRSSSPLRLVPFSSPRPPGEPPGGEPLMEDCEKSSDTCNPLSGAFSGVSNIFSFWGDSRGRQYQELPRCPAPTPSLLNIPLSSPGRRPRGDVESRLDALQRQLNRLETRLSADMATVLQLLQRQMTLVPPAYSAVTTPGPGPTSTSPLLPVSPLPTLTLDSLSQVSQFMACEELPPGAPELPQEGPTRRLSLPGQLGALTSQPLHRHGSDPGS

[10] = biological target: CYP3A4 (Homo sapiens, UniProt P08684); experiment: Inhibition of human microsomal CYP3A4 expressed in baculovirus infected insect cells at 10 uM using luciferin-IPA as substrate preincubated with enzyme/substrate mixture for 30 mins followed by further incubation with NADPH for 30 mins by CYP450 luciferase Glo assay relative to control; format: ADME; settings: probe luciferin-IPA
Sequence of CYP3A4 (P08684 whole entry): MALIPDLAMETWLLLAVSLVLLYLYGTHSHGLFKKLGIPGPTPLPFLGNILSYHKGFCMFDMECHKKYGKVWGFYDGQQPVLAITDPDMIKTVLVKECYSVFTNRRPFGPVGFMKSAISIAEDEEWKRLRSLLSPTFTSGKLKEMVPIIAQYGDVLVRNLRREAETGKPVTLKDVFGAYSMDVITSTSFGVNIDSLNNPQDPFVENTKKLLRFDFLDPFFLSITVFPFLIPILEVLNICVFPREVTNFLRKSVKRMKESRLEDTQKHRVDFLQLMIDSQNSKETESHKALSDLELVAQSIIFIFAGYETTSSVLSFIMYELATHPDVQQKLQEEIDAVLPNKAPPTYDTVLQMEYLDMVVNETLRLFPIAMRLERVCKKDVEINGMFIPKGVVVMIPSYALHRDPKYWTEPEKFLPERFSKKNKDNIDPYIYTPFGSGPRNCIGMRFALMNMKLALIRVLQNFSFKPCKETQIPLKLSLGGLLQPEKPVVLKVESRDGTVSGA

[11] = system: Trypanosoma cruzi; experiment: Antitrypanosomal activity against intracellular amastigote stage of Trypanosoma cruzi Silvio X10/1 infected in human U2OS cells measured after 96 hrs by DRAQ5 dye based microscopic analysis; format: functional, organism-based
[12] = system: Trypanosoma cruzi; experiment: Antitrypanosomal activity against intracellular amastigote stage of Trypanosoma cruzi 92.80 cl2 infected in human U2OS cells measured after 96 hrs by DRAQ5 dye based microscopic analysis; format: functional, organism-based
[13] = system: Leishmania major; experiment: Antileishmanial activity against promastigote form of Leishmania major assessed as parasite growth inhibition; format: functional, organism-based
[14] = system: Leishmania donovani; experiment: (§1) Antileishmanial activity against Leishmania donovani BPK091 promastigotes transfected with Leishmania donovani BPK190 genomic cosmid DNA assessed as parasite growth at IC50 concentration incubated with compound for 3 days under selective pressure and selection cycle repeated 10 times and measured at 37 days of selection relative to control; format: functional
[15] = Plasma concentration in syrian hamster infected with Leishmania infantum BCN150 promastigote at 40 mg/kg/day, po for 10 days formulated with 50% v/v cyclodextrin; format: ADME, organism-based, Mesocricetus auratus
[16] = system: Trypanosoma brucei; experiment: Antitrypanosomal activity against Trypanosoma brucei bloodstream form assessed as parasite growth inhibition incubated for 72 hrs by resazurin dye based assay; format: functional, organism-based; settings: Trypanosoma brucei, 72 h; read-out: EC50
[17] = biological target: T1, CYP1A2 (Homo sapiens, UniProt P05177); experiment: Inhibition of human microsomal CYP1A2 expressed in baculovirus infected insect cells at 10 uM using luciferin-1A2 as substrate preincubated with enzyme/substrate mixture for 30 mins followed by further incubation with NADPH for 30 mins by CYP450 luciferase Glo assay relative to control; format: ADME; settings: probe luciferin-1A2
T1 sequence (P05177 whole entry): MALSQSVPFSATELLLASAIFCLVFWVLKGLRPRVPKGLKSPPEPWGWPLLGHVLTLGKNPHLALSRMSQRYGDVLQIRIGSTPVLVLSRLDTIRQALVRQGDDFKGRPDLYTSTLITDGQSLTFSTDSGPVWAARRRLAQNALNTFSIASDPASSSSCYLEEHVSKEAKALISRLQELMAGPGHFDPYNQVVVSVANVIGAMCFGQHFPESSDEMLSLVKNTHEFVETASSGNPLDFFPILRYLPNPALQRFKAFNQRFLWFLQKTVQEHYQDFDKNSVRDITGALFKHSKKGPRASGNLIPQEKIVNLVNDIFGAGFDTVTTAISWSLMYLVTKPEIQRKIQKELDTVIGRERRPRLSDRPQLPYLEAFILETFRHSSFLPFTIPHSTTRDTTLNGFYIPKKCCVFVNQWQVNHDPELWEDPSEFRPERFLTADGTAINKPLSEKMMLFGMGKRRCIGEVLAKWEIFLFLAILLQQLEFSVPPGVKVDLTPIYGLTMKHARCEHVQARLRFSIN

[18] = biological target: CYP2C19 (Homo sapiens, UniProt P33261); experiment: Inhibition of human microsomal CYP2C19 expressed in baculovirus infected insect cells at 10 uM using luciferin-H EGE as substrate preincubated with enzyme/substrate mixture for 30 mins followed by further incubation with NADPH for 30 mins by CYP450 luciferase Glo assay relative to control; format: ADME; settings: probe luciferin-H EGE
Sequence of CYP2C19 (P33261 whole entry): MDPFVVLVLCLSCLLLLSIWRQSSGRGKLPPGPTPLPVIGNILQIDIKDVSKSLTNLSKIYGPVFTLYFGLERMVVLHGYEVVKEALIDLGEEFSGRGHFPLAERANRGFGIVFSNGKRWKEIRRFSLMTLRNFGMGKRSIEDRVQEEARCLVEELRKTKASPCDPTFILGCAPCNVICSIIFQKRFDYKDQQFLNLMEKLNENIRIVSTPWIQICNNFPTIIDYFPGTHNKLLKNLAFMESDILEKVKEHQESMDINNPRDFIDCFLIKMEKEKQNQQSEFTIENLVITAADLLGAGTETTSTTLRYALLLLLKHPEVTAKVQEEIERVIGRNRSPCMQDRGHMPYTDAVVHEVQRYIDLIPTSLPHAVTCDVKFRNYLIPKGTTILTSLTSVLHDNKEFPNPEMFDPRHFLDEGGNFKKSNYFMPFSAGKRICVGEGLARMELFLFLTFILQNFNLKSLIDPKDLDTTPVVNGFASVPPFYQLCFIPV

[19] = biological target: CYP2D6 (Homo sapiens, UniProt P10635); experiment: Inhibition of human microsomal CYP2D6 expressed in baculovirus infected insect cells at 10 uM using luciferin-ME as substrate preincubated with enzyme/substrate mixture for 30 mins followed by further incubation with NADPH for 30 mins by CYP450 luciferase Glo assay relative to control; format: ADME; settings: probe luciferin-ME
Sequence of CYP2D6 (P10635 whole entry): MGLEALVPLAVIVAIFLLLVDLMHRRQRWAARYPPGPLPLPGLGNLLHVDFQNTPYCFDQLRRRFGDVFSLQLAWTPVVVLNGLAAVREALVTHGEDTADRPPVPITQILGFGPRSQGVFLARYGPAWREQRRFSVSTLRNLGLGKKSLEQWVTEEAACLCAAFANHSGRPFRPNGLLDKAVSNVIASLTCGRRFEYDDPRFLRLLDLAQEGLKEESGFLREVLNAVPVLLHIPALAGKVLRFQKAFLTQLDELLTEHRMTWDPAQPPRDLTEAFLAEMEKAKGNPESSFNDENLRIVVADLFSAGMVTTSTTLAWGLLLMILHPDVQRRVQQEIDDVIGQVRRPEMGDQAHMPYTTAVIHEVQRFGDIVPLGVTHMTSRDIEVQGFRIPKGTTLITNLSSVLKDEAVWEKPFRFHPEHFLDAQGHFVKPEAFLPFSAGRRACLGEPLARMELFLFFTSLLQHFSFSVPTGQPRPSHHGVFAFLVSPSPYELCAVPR

[20] = system: Trypanosoma cruzi; experiment: Antitrypanosomal activity against Trypanosoma cruzi strain Y trypomastigotes infected in human HG39 cells by TaqMan probe based RT-PCR analysis; format: functional, organism-based
[21] = Toxicity in Syrian hamster infected with Leishmania infantum BCN150 promastigotes assessed as spleen weight at 40 mg/kg/day, po for 10 days formulated with 30% v/v cyclodextrin (reference value: 0.183 +/- 0.04 g); format: organism-based, Mesocricetus auratus; settings: in vivo, 240 h
[22] = Stability of the compound in phosphate buffer assessed as compound abundance at 450 nm at 5 uM measured at pH 8 by fluorescence emission spectrum analysis; format: physicochemical; settings: read-out: Stability
[23] = system: Leishmania infantum; experiment: Antileishmanial activity against luciferase expressing intracellular amastigote stage of Leishmania infantum infected in human THP1 cells assessed as parasite growth inhibition measured after 48 to 72 hrs by steady-glo luciferase assay; format: functional, organism-based; settings: Leishmania infantum, THP-1; read-out: EC50
[24] = Cytotoxicity against human A549 cells assessed as cell growth at […] incubated for 48 hrs by Celltiter-Glo luminescence assay relative to control; format: cell-based; set-up: dose or concentration left out as unconfirmed; settings: read-out: Activity
[25] = Selectivity index, ratio of CC50 for human THP1 cells to EC50 for Trypanosoma brucei bloodstream form; format: toxicity; settings: read-out: Ratio CC50/EC50
[26] = system: Leishmania donovani; experiment: as §1, with “IC75” for “IC50”, “incubated” for “incubated with compound”, “for 25 passages” for “10 times”, “43 to 78” for “37”; format: functional
[27] = Toxicity in Syrian hamster infected with Leishmania infantum BCN150 promastigotes assessed as effect on AST level at 20 mg/kg/day, po for 10 days measured after the last treatment; format: organism-based, Mesocricetus auratus; settings: in vivo, 240 h
[28] = system: Leishmania infantum; experiment: Antileishmanial activity against Leishmania infantum amastigotes infected in Syrian hamster assessed as reduction in parasite load in liver at 20 mg/kg/day, po for 10 days relative to control; format: functional; settings: 240 h

SMILES	pEC50 [2]	Activity [3] [%]	Therm_solubility [8]	inhibition at 2 h, 10 µM [9] [%]	inhibition at 0.5 h, 10 µM [10] [%]	Activity [14] [%]	pEC50 [16]	inhibition at 0.5 h, 10 µM [17] [%]	inhibition at 0.5 h, 10 µM [18] [%]	inhibition at 0.5 h, 10 µM [19] [%]	pEC50 [20]	pEC50 [23]	viability at 48 h [24] [%]	further results
COc1ccc2oc(-c3csc4ccccc34)c(O)c(=O)c2c1	5.47	-22.85	Insoluble	32	23.3	>50	6.10	99.7	-6.32	26.2	5.12	5.73	3.19	Stability [1]: Unstable; pEC50 ([4]; ARMA 13 cl1, U2OS): 5.92; pEC50 [5]: 6.05; pEC50 [6]: 6.22; Activity [7]: 5465832.19 g⁻¹; pEC50 ([11]; Silvio X10/1, U2OS): 6.52; pEC50 ([12]; 92.80 cl2, U2OS): 6.15; pEC50 [13]: 5.17; concentration at 240 h [15]: 0.038 µM; Activity [21]: 0.719 g; remaining at 5 µM [22]: 90 to 95%; selectivity ratio [25]: 33
CCCCCCCCCCCCCCCCOP(=O)([O-])OCC[N+](C)(C)C [MILTEFOSINE]	5.05	3.4	Insoluble	-16.9	8.4	>50	4.47	-20	7.9	30.8	4.90	5.49 to 5.60	95.8	inhibition [4]: Active; inhibition [5]: Active; inhibition [6]: Active; Activity [26]: >75%; inhibition [11]: Active; inhibition [12]: Active; inhibition [13]: Active; Activity [27]: Non-Toxic; inhibition in vivo at 20 mg/kg/day [28]: 81.2%
